The record followed here is patent US20220251152A1, “COMPOSITIONS AND METHODS FOR SELECTIVE PROTEIN DEGRADATION” (Novartis AG, priority 2019, published 2022).

In test [1] the target is T1, IKZF3 136-180 and 236-249-tagged NanoLuciferase (Homo sapiens, UniProt Q96SW2+Q9UKT9, DEL181-196/S197T).
T1 construct: expressed in transfected cells; host or cells: HEK293T
The test is classed as cell-based. To be noted: 1-hour pre-treatment (10 μM MG132; 128 or 12.8 ng/mL cyclohexamide).
Protocol: DMSO was included as a vehicle control. Luminescence was measured by reading each 384-well plate on a ViewLux® with 1-second and 5-second exposures. The data was imported into Spotfire® and visualizations were made by doing a NC3 normalization according to the following formula: 100*([Luminescence]/[DMSO]).

For test [2], the system named is IKZF3 degron-tagged melanogenesis associated transcription factor (MITF). Kind of test: Western blot of IKZF3-tagged MITF in HEK293T cells. The format is cell-based, human. To be noted: for degradation of tagged MITF mediated by IMiD: 10 μM compound for 24 hours, IKZF3 136-180 and 236-249- and lysine free-tagged MITF; for ability of the tag to mediate lenalidomide-dependent degradation of MITF: HEK293T, Western blot. The protocol: IKZF3-based degradation tags were evaluated for their ability to facilitate the degradation of melanogenesis associated transcription factor (MITF) or avian myelocytomatosis viral oncogene (MYC) homolog by Western blot. In addition to the IKZF3-based degradation tags, MITF and MYC were also fused to a FLAG tag to facilitate their detection using an anti-FLAG antibody.
DMSO was used as vehicle control.
Background: Immunoblotting shows a protein as a band on a membrane.

Test [3] concerns NanoLuciferase fused to various IKZF3-based degradation tags. Description: Western blot of variant IKZF3-based degradation tags fused to NanoLuciferase in HEK293T cells. The test is classed as cell-based, human. As to conditions: tag fused to N-terminus of NanoLuciferase. The method, then:
Additionally, the IKZF3-based degradation tags were modified using the following strategies:
(1) deleting N-terminal and/or C-terminal amino acid residues;
Protein degradation was measured using western blot as described in Example 2.

In test [4] the test system is CAR19 fused to HilD tag and/or FurON. Kind of test: Western blot of CAR19 fused to HilD tag and/or FurON in JNL cells. The test is classed as cell-based, human. As to conditions: 10 μM lenalidomide, 24 hours; FurON constructs with 1 μM bazedoxifene.
Protocol: Viruses were prepared from maxi preps and used to transduce JNL cells. Either 275 μL of viral supernatant or 700 μL of viral supernatant was used for transduction. JNL cells are Jurkat cells engineered with a luciferase gene under control of the NFAT promoter.
Briefly, cells were diluted to 0.5×10^6 in 3 mL total in 6 well dishes. […] Bazedoxifene was added at a final concentration of 1 μM to every well that contained a cell line expressing a fusion comprising FurON. […] Cells were incubated at 37° C. and 5% CO2 overnight.
Lysates were centrifuged, supernatant transferred to new tubes and protein quantities read by Lowry Assay (BioRad 5000111). Each sample was normalized to 30 μg total protein in a 20 μL volume with 4× sample buffer (Thermo Scientific NP0007) and 10× reducing agent (Thermo Scientific NP0009). Samples were subjected to Western blot analysis using a mouse anti-V5 antibody (Thermo Scientific MA5-15253) at 1:1000 dilution, a mouse anti-actin antibody (Sigma Aldrich A5441) at 1:10000 dilution, and/or a mouse anti-CD3z antibody (BD 551034) at 1:1000 dilution.
Cells were harvested and subjected to Western blot as described above using a mouse anti-actin antibody (Sigma Aldrich A5441) at 1:10000 dilution or a mouse anti-CD3zeta antibody (BD 551034) at 1:1000 dilution.
Test [5] shares this test system. Description: Flow cytometry of surface CAR expression on JNL cells, 10 μM lenalidomide and/or bazedoxifene 24 hours. The test is classed as cell-based, human. As to conditions: surface CAR on transduced JNL cells. (In general: A flow cytometer gives signals particle by particle.)
Description: Next, the surface expression of CAR19 on stably transduced JNL cells was examined by flow cytometry. […] On Day 2, cells were harvested, stained using biotinylated-protein L (Genscript, M00097) followed by PE conjugated streptavidin (Jackson Lab, 016-110-084), and subjected to flow cytometry analysis using Fortessa instrument.

“Also recorded” adds a separate entry of the source.

T1 sequence (Q96SW2 whole entry, stated change not applied, one chain of several): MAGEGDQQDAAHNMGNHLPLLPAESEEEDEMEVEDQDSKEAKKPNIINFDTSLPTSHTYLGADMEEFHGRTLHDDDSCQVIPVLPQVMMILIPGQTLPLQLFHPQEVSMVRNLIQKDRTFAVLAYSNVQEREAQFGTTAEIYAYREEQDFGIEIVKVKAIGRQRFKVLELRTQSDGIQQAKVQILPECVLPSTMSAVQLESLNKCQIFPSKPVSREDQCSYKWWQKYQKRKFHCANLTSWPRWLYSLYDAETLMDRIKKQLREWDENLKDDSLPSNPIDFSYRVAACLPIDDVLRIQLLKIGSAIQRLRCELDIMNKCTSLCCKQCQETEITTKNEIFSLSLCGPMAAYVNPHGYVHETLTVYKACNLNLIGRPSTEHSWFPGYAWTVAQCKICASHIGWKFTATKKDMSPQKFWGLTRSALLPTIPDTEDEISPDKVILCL
T1 sequence (Q16531 whole entry partner, one chain of several): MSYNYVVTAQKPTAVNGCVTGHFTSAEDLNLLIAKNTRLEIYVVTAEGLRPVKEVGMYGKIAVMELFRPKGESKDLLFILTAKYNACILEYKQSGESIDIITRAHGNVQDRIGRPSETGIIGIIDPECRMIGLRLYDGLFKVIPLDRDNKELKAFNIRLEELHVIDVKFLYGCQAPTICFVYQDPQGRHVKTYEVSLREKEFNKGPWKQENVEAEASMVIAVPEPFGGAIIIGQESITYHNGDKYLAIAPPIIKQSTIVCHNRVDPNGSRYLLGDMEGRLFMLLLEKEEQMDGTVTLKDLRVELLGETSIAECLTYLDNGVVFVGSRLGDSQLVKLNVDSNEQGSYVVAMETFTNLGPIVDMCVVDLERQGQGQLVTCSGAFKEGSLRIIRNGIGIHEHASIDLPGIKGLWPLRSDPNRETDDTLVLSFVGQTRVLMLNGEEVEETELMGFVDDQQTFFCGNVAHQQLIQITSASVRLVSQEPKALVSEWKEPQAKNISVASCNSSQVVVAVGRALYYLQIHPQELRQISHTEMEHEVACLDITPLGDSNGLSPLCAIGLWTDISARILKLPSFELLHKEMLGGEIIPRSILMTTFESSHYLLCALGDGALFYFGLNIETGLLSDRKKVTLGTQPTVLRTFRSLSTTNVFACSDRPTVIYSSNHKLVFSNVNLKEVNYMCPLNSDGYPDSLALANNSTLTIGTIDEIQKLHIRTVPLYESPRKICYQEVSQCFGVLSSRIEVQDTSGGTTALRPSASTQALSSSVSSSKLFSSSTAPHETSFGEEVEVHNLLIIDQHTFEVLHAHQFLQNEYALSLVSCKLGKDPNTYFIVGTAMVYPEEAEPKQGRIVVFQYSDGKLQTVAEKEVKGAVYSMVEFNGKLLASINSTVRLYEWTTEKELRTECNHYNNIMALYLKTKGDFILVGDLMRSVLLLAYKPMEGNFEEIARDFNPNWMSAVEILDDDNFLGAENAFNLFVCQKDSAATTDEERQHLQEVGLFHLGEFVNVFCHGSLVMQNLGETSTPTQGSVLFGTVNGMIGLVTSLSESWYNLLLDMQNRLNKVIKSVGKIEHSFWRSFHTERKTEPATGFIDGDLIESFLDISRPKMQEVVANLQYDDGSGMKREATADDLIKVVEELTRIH

As to `C[C@@H]1C[C@@H]([C@H](O)CC2CC(=O)NC(=O)C2)C(=O)[C@@H](C)C1` [cyclohexamide], the “effect of pre-treatment on lenalidomide-dependent degradation of NanoLuciferase” value in test [1] is listed as “No obvious reduction”.

Regarding `Nc1cccc2c1C(=O)N(C1CCC(=O)NC1=O)C2=O` (centres unmarked) [pomalidomide, 4-amino-2-(2,6-dioxopiperidin-3-yl)isoindoline-1,3-dione, reference compound], the entries for the “degradation of tagged MITF mediated by IMiD” value in test [2] and in test [2] (listed as Pomalidomide) were “effectively facilitated degradation of tagged MITF” and “slightly greater extent than lenalidomide”, respectively.

As for `O=C1CCC(N2C(=O)c3ccccc3C2=O)C(=O)N1` (centres unmarked) [thalidomide, 2-(2,6-dioxopiperidin-3-yl)isoindoline-1,3-dione, reference compound], the “degradation of tagged MITF mediated by IMiD” value in test [2] is “much less effective”.

On to “IKZF3 136-170 MALEK: IKZF3 136-170 with helix MALEKMALEKMALE, SEQ ID NO: 86”, for which the “ability of the tag to facilitate lenalidomide-dependent degradation of NanoLuciferase” value (from here on “ability of the tag … of NanoLuciferase”) in test [3] is reported as “retained the ability to facilitate lenalidomide-dependent degradation; also recorded: able to mediate lenalidomide-dependent degradation; also recorded: facilitated lenalidomide-induced degradation”.

Take “IKZF3 136-180 MALEK: residues 236-249 replaced with helix MALEKMALEKMALE, SEQ ID NO: 85”: in test [3], the “ability of the tag … of NanoLuciferase” value is “retained the ability to facilitate lenalidomide-dependent degradation; also recorded: facilitated lenalidomide-induced degradation”.

In the case of “IKZF3 136-180 Q147H: variant of IKZF3 136-180 with glutamine at position 147 replaced with histidine, SEQ ID NO: 27”, in test [2], the “ability of the tag to mediate lenalidomide-dependent degradation of MITF” value (“ability of the tag … of MITF” for short) is “blocked the ability of IKZF3 136-180 to mediate the lenalidomide-dependent degradation of MITF; also recorded: did not show degradation”.

Consider “IKZF3 136-180 and 236-249 K245R: tag with lysine at position 245 mutated to arginine, SEQ ID NO: 84 (HKRSHTGERPFQCNQCGASFTQKGNLLRHIKLHTGEKPFKCHLCNTASAEARHIRAEMG; source: /note="Description of Unknown: IKZF3 sequence")”, for which the figures for the “ability of the tag … of NanoLuciferase” value in test [3] and in test [3] (listed as SEQ ID NO: 84) were “facilitated lenalidomide-induced degradation” and “did not significantly impact the ability of the tag to mediate degradation”, respectively.

As to “IKZF3 136-180 and 236-249 K245S: tag with lysine at position 245 mutated to serine, SEQ ID NO: 100 (HKRSHTGERPFQCNQCGASFTQKGNLLRHIKLHTGEKPFKCHLCNTASAEARHISAEMG; source: /note="Description of Unknown: IKZF3 sequence")”, the “ability of the tag … of NanoLuciferase” value in test [3] is listed as “facilitated lenalidomide-induced degradation”; in test [3] (listed as SEQ ID NO: 100) it was “did not significantly impact the ability of the tag to mediate degradation”.

In the case of “IKZF3 136-180 and 236-249: IKZF3-based degradation tag with amino acid residues 136-180 and 236-249 of human IKZF3, SEQ ID NO: 3 (HKRSHTGERPFQCNQCGASFTQKGNLLRHIKLHTGEKPFKCHLCNTASAEARHIKAEMG; source: /note="Description of Unknown: IKZF3 sequence")”, the “ability of the tag … of NanoLuciferase” value in test [3] is recorded as “facilitated lenalidomide-dependent degradation of NanoLuciferase; also recorded: facilitated lenalidomide-induced degradation”. The “ability of the tag … of MITF” value in test [2] is on record as “more effective than IKZF3 136-180”.

As for “IKZF3 136-180: tag with amino acid residues 136-180 of IKZF3, SEQ ID NO: 5”, the “ability of the tag … of NanoLuciferase” value in test [3] is given as “able to mediate lenalidomide-dependent degradation”. For the same molecule, the “ability of the tag … of MITF” value in test [2] is “to a lesser degree than IKZF3 136-180 and 236-249”.

On to “IKZF3 140-170 MALEK: tag comprising the amino acid sequence of SEQ ID NO: 87”, for which the “ability of the tag … of NanoLuciferase” value in test [3] is listed as “did not mediate lenalidomide-induced degradation; also recorded: did not mediate lenalidomide induced degradation”.

Consider “IKZF3 141-163 MALEK: tag comprising the amino acid sequence of SEQ ID NO: 88 (TGERPFQCNQCGASFTQKGNLLRMALEKMALEKMALE; source: /note="Description of Unknown: IKZF3 sequence")”, for which the “ability of the tag … of NanoLuciferase” value in test [3] is reported as “did not mediate lenalidomide-induced degradation; also recorded: did not mediate lenalidomide induced degradation”.

Take “IKZF3 145-155 MALEK: tag comprising the amino acid sequence of SEQ ID NO: 89 (PFQCNQCGASFMALEKMALEKMALE; source: /note="Description of Unknown: IKZF3 sequence")”: the “ability of the tag … of NanoLuciferase” value in test [3] is listed as “did not mediate lenalidomide-induced degradation; also recorded: did not mediate lenalidomide induced degradation”.

Take “lysine free IKZF3 136-180 and 236-249: variant in which every lysine residue in the tag was mutated to arginine, SEQ ID NO: 4”: in test [2], the “ability of the tag … of MITF” value is given as “did not significantly impact the ability of this tag to mediate lenalidomide-dependent degradation of MITF”.

B1: construct 765: signal peptide, FurOn, and CAR19 (protein)
chain: RSSLALSLTADQMVSALLDAEPPILYSEYDPTRPFSEASMMGLLTNLADRELVHMINWAKRVPGFVDLALHDQVHLLECAWMEILMIGLVWRSMEHPGKLLFAPNLLLDRNQGKCVEGGVEIFDMLLATSSRFRMMNLQGEEFVCLKSIILLNSGVYTFLSSTLKSLEEKDHIHRVLDKITDTLIHLMAKAGLTLQQQHQRLAQLLLILSHIRHMSSKRMEHLYSMKCKNVVPLSDLLLEMLDAHRLGTGAEDPRPSRKRRSLGDVGEIVMTQSPATLSLSPGERATLSCRASQDISKYLNWYQQKPGQAPRLLIYHTSRLHSGIPARFSGSGSGTDYTLTISSLQPEDFAVYFCQQGNTLPYTFGQGTKLEIKGGGGSGGGGSGGGGSQVQLQESGPGLVKPSETLSLTCTVSGVSLPDYGVSWIRQPPGKGLEWIGVIWGSETTYYQSSLKSRVTISKDNSKNQVSLKLSSVTAADTAVYYCAKHYYYGGSYAMDYWGQGTLVTVSSTTTPAPRPPTPAPTIASQPLSLRPEACRPAAGGAVHTRGLDFACDIYIWAPLAGTCGVLLLSLVITLYCKRGRKKLLYIFKQPFMRPVQTTQEEDGCSCRFPEEEEGGCELRVKFSRSADAPAYQQGQNQLYNELNLGRREEYDVLDKRRGRDPEMGGKPRRKNPQEGLYNELQKDKMAEAYSEIGMKGERRRGKGHDGLYQGLSTATKDTYDALHMQALPPR
As for B1, the “effect of lenalidomide on the CAR construct (Western blot)” value in test [4] is recorded as “did not have any impact”.

B2: 769 (protein)
chain: MALPVTALLLPLALLLHAARPEIVMTQSPATLSLSPGERATLSCRASQDISKYLNWYQQKPGQAPRLLIYHTSRLHSGIPARFSGSGSGTDYTLTISSLQPEDFAVYFCQQGNTLPYTFGQGTKLEIKGGGGSGGGGSGGGGSQVQLQESGPGLVKPSETLSLTCTVSGVSLPDYGVSWIRQPPGKGLEWIGVIWGSETTYYQSSLKSRVTISKDNSKNQVSLKLSSVTAADTAVYYCAKHYYYGGSYAMDYWGQGTLVTVSSTTTPAPRPPTPAPTIASQPLSLRPEACRPAAGGAVHTRGLDFACDIYIWAPLAGTCGVLLLSLVITLYCKRGRKKLLYIFKQPFMRPVQTTQEEDGCSCRFPEEEEGGCELRVKFSRSADAPAYQQGQNQLYNELNLGRREEYDVLDKRRGRDPEMGGKPRRKNPQEGLYNELQKDKMAEAYSEIGMKGERRRGKGHDGLYQGLSTATKDTYDALHMQALPPRGGGGSGGGGTGGGGSGMHKRSHTGERPFQCNQCGASFTQKGNLLRHIKLHTGEKPFKCHLCNTASAEARHIKAEMG
Consider B2, for which, in test [5] (10 μM lenalidomide, 24 hours), the “% reduction in CAR expression” value is listed as 90% and the Effect of lenalidomide result is recorded as “Yes”. In addition, the “CAR Expression” value in test [5] (flow cytometry, FurON constructs only in presence of bazedoxifene) is given as “Yes”.
